Here are results for three compounds from US20230172846A1, “ORAL DISSOLVABLE FILM AND METHOD OF MANUFACTURING AND USING THE SAME” (CURE PHARMACEUTICAL HOLDING CORP., priority 2019, published 2023).

Data set [1] in a line: CBD film stability study (% assay of CBD). Format: physicochemical.
The subject of data set [2] is pancreatic cancer. The conditions noted are these: in vivo; cited from earlier work.
Data set [3] is described as follows: Vitamin D3 Oral Thin Film 4 weeks stability study (% assay). Format: physicochemical. The conditions noted are these: for % Assay of Vitamin D3: in oral thin film. The source says:
Vitamin D3 is a highly sensitive Lipophilic active pharmaceutical ingredient (API). It was used as a model drug, formulated using above formulation and, Vitamin D3 Oral Thin Film tested for 4 weeks stability study.

Consider `C=C(C)[C@@H]1CCC(C)=C[C@H]1c1c(O)cc(CCCCC)cc1O` [CBD, Cannabidiol], for which the “% Assay of CBD” value in data set [1] (25 C./60% RH, T0 Week) was determined as 108%; in data set [1] (25 C./60% RH, T1 Month), 109%; in data set [1] (25 C./60% RH, T2 Months), 113%; in data set [1] (25 C./60% RH, T 2 Weeks), 109%; in data set [1] (25 C./60% RH, T3 Months), 120%; in data set [1] (40 C./75% RH, T1 Month) it was 106%. Besides, the “% Assay of CBD” value is recorded as 113% in data set [1] (40 C./75% RH, T2 Months); 108% in data set [1] (40 C./75% RH, T 2 Weeks); 118% in data set [1] (40 C./75% RH, T3 Months); 96% in data set [1] (40 C./75% RH, T9 Months); 109% in data set [1] (in film formulation, 25 C./60% RH, T1 Month); 113% in data set [1] (in film formulation, 25 C./60% RH, T2 Months). In addition, the “% Assay of CBD” value in data set [1] (in film formulation, 25 C./60% RH, T 2 Weeks) was determined as 109%; in data set [1] (in film formulation, 25 C./60% RH, T3 Months) it was 120%; in data set [1] (in film formulation, 40 C./75% RH, T1 Month) it was 106%; in data set [1] (in film formulation, 40 C./75% RH, T2 Months) it was 113%; in data set [1] (in film formulation, 40 C./75% RH, T 2 Weeks) it was 108%; in data set [1] (in film formulation, 40 C./75% RH, T3 Months) it was 118%. Moreover, the “% Assay of CBD” value in data set [1] (in film formulation, T0 Week) came out at 108%. The “Stability and protection of the API in the film formulation” value in data set [1] (T=3M stability) is on record as “better stability”.

Turning to `COc1cc(-c2cc(=O)c3c(O)cc(O)c(CC=C(C)C)c3o2)ccc1O` [FBL-03G], the “Survival rate of subjects suffering from pancreatic cancer” value in data set [2] is given as “increase survival rate”.

`C=C1CC[C@H](O)C/C1=C/C=C1\CCC[C@]2(C)[C@@H]([C@H](C)CCCC(C)C)CC[C@@H]12` [Vitamin D3]: the “Protection and stability of Vitamin D3 in OTF” value in data set [3] (4 weeks stability study, high heat and humidity) is recorded as “significant protection”. For the same compound, the “% Assay of Vitamin D3” value in data set [3] (25 C./60% RH, T 1 Week) came to 95%; in data set [3] (25 C./60% RH, T2 Weeks) it was 100%; in data set [3] (25 C./60% RH, T3 Weeks) it was 101%; in data set [3] (25 C./60% RH, T4 Weeks), 101%; in data set [3] (40 C./75% RH, T 1 Week) it was 98%; in data set [3] (40 C./75% RH, T2 Weeks), 92%. Moreover, the “% Assay of Vitamin D3” value in data set [3] (40 C./75% RH, T3 Weeks) was 91%; in data set [3] (40 C./75% RH, T4 Weeks), 93%; in data set [3] (T0 Week), 100%.
